Experimental data as given in patent US20260049085A1, “CYCLIC COMPOUNDS AND METHODS OF USING SAME” (SCHRÖDINGER, INC., priority 2022, published 2026).

What was measured:
[1] = test system: IL10 secretion, OCI-LY10 cells; experiment: Human IL10 secretion assay in OCI-LY10 cells (MSD); format: cell-based; settings: 24 h incubation, relative to DMSO set as 100%, read-out: IL-10 Secretion IC50
Protocol: IL10 is one of the cytokines that are regulated via activation of NF-kB signaling. For example, in ABC-DLBCL cell lines, the activated NF-kB signaling leads to increased IL10 secretion. Inhibition of NF-kB signaling has been shown leading to decreased IL10 secretion.
OCI-LY10 cells were seeded in IMEM supplemented with 20% fetal bovine serum at 4.8×10^5 cells per 160 μL per well in 96-well V-bottom cell culture plates (coming, 3894), treated with 120 nL of 3-fold serial compound dilutions, starting at 4 mM. The final vehicle concentration was 0.075% DMSO in all wells. After a 24 h incubation, human IL-10 pre-coated plates (Meso Scale Discovery) were washed 3 times with PBST, and 50 μL culture medium was aspirated into the MSD plate and incubated at 4° C. overnight. The supernatant was then discarded, and the wells were washed 3 times with PBST. SULFO-TAG Anti-human IL-10 Antibody (50×) was diluted 50-fold according to the Meso Scale Protocol, then 25 μL of SULFO-TAG Anti-human IL-10 Antibody (1×) was added. After 2 h of incubation at RT, the supernatant was discarded, and the well was washed 3 times with PBST. 2× read buffer was added and the signal was read on an MSD Sector S600. The effect of a particular compound on IL10 secretion is shown relative to the effect of DMSO; set as 100%. IC50 values (nM) were determined using 4-parametric curve-fitting.

[2] = biological target: T1, full-length MALT1 protein His-MALT1(1-824) (Homo sapiens, UniProt Q9UDY8); experiment: MALT1 protease assay (Ac-LRSR-AMC tetrapeptide substrate, fluorescence); format: biochemical; settings: 1 nM MALT1, 25 μM Ac-LRSR-AMC, 2 h pre-incubation, 8 hr incubation at RT
T1 construct: full-length MALT1 protein His-MALT1(1-824); His (N); made in house; host or cells: baculovirus-infected insect cells
T1 sequence (Q9UDY8 1-824): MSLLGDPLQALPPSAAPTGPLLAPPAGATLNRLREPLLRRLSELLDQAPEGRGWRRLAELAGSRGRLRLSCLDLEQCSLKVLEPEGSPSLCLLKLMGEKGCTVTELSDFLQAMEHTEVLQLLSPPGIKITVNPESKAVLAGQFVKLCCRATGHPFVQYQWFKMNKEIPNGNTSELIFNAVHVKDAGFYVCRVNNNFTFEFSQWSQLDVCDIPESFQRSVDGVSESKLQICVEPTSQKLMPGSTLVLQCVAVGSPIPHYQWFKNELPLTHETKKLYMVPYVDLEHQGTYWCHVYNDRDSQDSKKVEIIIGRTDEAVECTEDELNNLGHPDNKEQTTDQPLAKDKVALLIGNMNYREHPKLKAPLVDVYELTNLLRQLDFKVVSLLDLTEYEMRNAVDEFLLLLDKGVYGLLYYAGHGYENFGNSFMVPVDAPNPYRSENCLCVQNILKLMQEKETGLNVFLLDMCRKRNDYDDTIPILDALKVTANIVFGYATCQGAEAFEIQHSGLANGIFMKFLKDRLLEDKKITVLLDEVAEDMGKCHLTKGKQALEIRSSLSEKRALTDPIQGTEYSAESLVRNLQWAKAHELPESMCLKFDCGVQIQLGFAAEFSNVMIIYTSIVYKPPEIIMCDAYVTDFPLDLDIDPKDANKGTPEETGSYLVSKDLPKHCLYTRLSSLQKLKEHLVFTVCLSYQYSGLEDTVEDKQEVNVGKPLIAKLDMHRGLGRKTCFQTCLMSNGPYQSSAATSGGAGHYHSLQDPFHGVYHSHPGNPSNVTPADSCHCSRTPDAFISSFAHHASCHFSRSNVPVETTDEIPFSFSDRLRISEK
Method in brief: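 Full-length His-MALT1(1-824) from baculovirus-infected insect cells (1 nM) was pre-incubated 2 h at RT with compounds (0.1% DMSO), then 25 μM Ac-LRSR-AMC added in 50 mM Tris pH 7.5, 600 mM sodium citrate, 1 mM DTT, 1 mM EDTA, 0.05% BSA. Fluorescence (ex 355/em 460 nm) read after 8 h at RT; IC50 by non-linear regression of % remaining activity.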

Row | SMILES | IC50 [1] | IC50 [2]
1 | C[C@]1(c2ccn(C(F)F)n2)C[C@H](C(=O)Nc2cnc(-c3ncccn3)c(Cl)c2)c2cnc3cc(F)nn3c21 (single isomer, unassigned) [Example 140] | 10 to 100 nM | < 10 nM
2 | Cn1ccc([C@@]2(C)C[C@H](C(=O)Nc3cnc(-n4nccn4)c(Cl)c3)c3cnc4cc(F)nn4c32)n1 (single isomer, unassigned) [Example 32] | 100 to 1000 nM | < 10 nM
3 | Cn1cc([C@@]2(C)C[C@H](C(=O)Nc3cnc(-n4nccn4)c(Cl)c3)c3cnc4cc(Cl)nn4c32)cn1 (single isomer, unassigned) [Example 8] | 10 to 100 nM | < 10 nM
4 | Cn1ccc([C@@]2(C)C[C@H](C(=O)Nc3cnc(OC(F)F)c(C#N)c3)c3cnc4cc(F)nn4c32)n1 (single isomer, unassigned) [Example 68] | 100 to 1000 nM | < 10 nM
5 | C[C@]1(c2cnn(C(F)F)c2)C[C@H](C(=O)Nc2cnc(-c3ncccn3)c(C(F)(F)F)c2)c2cnc3cc(F)nn3c21 (single isomer, unassigned) [Example 148] | 100 to 1000 nM | 10 to 100 nM
6 | Cn1cc([C@@]2(C)C[C@H](C(=O)Nc3cnc(OC(F)F)c(C#N)c3)c3cnc4cc(F)nn4c32)cn1 (single isomer, unassigned) [Example 40] | 10 to 100 nM | < 10 nM
7 | CCn1cc([C@@]2(C)C[C@H](C(=O)Nc3cnc(-n4nccn4)c(Cl)c3)c3cnc4cc(F)nn4c32)cn1 (single isomer, unassigned) [Example 20] | 10 to 100 nM | < 10 nM
8 | Cn1cc([C@@]2(C)C[C@H](C(=O)Nc3cnc(-n4nccn4)c(Cl)c3)c3cnc4c(F)c(F)nn4c32)cn1 (single isomer, unassigned) [Example 12] | 100 to 1000 nM | < 10 nM
9 | Cn1cc([C@@]2(C)C[C@H](C(=O)Nc3cnc(-n4nccn4)c(Cl)c3)c3cnc4cc(F)nn4c32)cn1 (single isomer, unassigned) [Example 1] | 100 to 1000 nM | < 10 nM
10 | C[C@]1(c2ccn(C(F)F)n2)C[C@H](C(=O)Nc2cnc(OC(F)F)c(C#N)c2)c2cnc3cc(F)nn3c21 (single isomer, unassigned) [Example 110] | 10 to 100 nM | < 10 nM
11 | C[C@]1(c2ccn(C(F)F)n2)C[C@H](C(=O)Nc2cnc(-n3nccn3)c(C(F)(F)F)c2)c2cnc3cc(F)nn3c21 (single isomer, unassigned) [Example 124] | 10 to 100 nM | < 10 nM
12 | CC(F)(F)n1cc([C@@]2(C)C[C@H](C(=O)Nc3cnc(-n4nccn4)c(Cl)c3)c3cnc4cc(F)nn4c32)cn1 (single isomer, unassigned) [Example 120] | 10 to 100 nM | < 10 nM
13 | C[C@]1(c2cnn(C3CC3)c2)C[C@H](C(=O)Nc2cnc(-n3nccn3)c(Cl)c2)c2cnc3cc(F)nn3c21 (single isomer, unassigned) [Example 28] | 10 to 100 nM | < 10 nM

The next lines start with the values.

Row | IC50 [1] | IC50 [2] | SMILES
14 | 10 to 100 nM | < 10 nM | C[C@]1(c2cnn(C(F)F)c2)C[C@H](C(=O)Nc2cnc(-n3nccn3)c(Cl)c2)c2cnc3cc(F)nn3c21 (single isomer, unassigned) [Example 24]
15 | 10 to 100 nM | < 10 nM | Cn1cc([C@@]2(C)C[C@H](C(=O)Nc3cnc(-n4nccn4)c(C(F)(F)F)c3)c3cnc4cc(F)nn4c32)cn1 (single isomer, unassigned) [Example 5]
16 | 100 to 1000 nM | < 10 nM | CC1(c2ccn(C(F)F)n2)CC(C(=O)Nc2cnc(-c3ncc(F)cn3)c(C(F)(F)F)c2)c2cnc3cc(F)nn3c21 (single isomer, unassigned) [Example 116]
17 | 10 to 100 nM | < 10 nM | C[C@]1(c2ccn(C(F)F)n2)C[C@H](C(=O)Nc2cnc(-n3nccn3)c(Cl)c2)c2cnc3cc(F)nn3c21 (single isomer, unassigned) [Example 88]
18 | 100 to 1000 nM | < 10 nM | C[C@]1(c2cnn(C(F)F)c2)C[C@H](C(=O)Nc2cnc(OC(F)F)c(C#N)c2)c2cnc3cc(F)nn3c21 (single isomer, unassigned) [Example 92]
19 | 10 to 100 nM | < 10 nM | C[C@]1(c2ccn(C(F)F)n2)C[C@H](C(=O)Nc2cnc(-c3ncccn3)c(C(F)(F)F)c2)c2cnc3cc(F)nn3c21 (single isomer, unassigned) [Example 136]
20 | 100 to 1000 nM | < 10 nM | Cn1ccc([C@@]2(C)C[C@H](C(=O)Nc3cnc(-n4nccn4)c(C(F)(F)F)c3)c3cnc4cc(F)nn4c32)n1 (single isomer, unassigned) [Example 144]
21 | – | ≥ 1000 nM | C[C@@]1(c2cnn(C(F)F)c2)C[C@@H](C(=O)Nc2cnc(-c3ncncc3F)c(Cl)c2)c2cnc3cc(F)nn3c21 (single isomer, unassigned) [Example 157]
